Tested on: RBL-2H3
Assay: Anti-type1 allergic activity in rat RBL2H3 cells using p-nitrophenyl-2-acdetamido-2-deoxy-beta-D-glucopyranoside as substrate assessed as inhibition of beta-hexosaminidase release incubated for 10 mins prior to substrate addition measured after 60 mins by spectrophotometry
Format: functional, cell-based

SMILES | IC50 [µM]
COC(=O)[C@H]1O[C@@H](O[C@H]2CC[C@]3(C)[C@H]4CC=C5[C@@H]6CC(C)(C)C[C@H](O)[C@]67C[C@@H](OC7=O)[C@@]5(C)[C@]4(C)CC[C@H]3C2(C)C)[C@H](O[C@@H]2O[C@H](CO)[C@@H](O)[C@H](O)[C@H]2O[C@@H]2O[C@@H](C)[C@H](O)[C@@H](O)[C@H]2O)[C@@H](O)[C@@H]1O | > 200
C[C@@H]1O[C@@H](O[C@@H]2[C@@H](O)[C@H](O[C@H]3CC[C@]4(C)[C@H]5CC=C6[C@@H]7CC(C)(C)CC[C@]7(C(=O)O[C@@H]7O[C@H](CO)[C@@H](O)[C@H](O)[C@H]7O)CC[C@@]6(C)[C@]5(C)CC[C@H]4C3(C)C)O[C@H](C(=O)O)[C@H]2O)[C@H](O)[C@H](O)[C@H]1O | > 200
C[C@@H]1O[C@@H](O[C@H]2[C@H](O[C@H]3[C@H](O[C@H]4CC[C@]5(C)[C@H]6CC=C7[C@@H]8C[C@@](C)(CO)[C@@H](O)C[C@]89C[C@@H](OC9=O)[C@@]7(C)[C@]6(C)CC[C@H]5C4(C)C)O[C@H](C(=O)O)[C@@H](O)[C@@H]3O)O[C@H](CO)[C@@H](O)[C@@H]2O)[C@H](O)[C@H](O)[C@H]1O [BRIDGESIDE A1] | > 200
CC(=O)OC[C@]1(C)C[C@H]2C3=CC[C@@H]4[C@@]5(C)CC[C@H](O[C@@H]6O[C@H](C(=O)O)[C@@H](O)[C@H](O)[C@H]6O[C@@H]6O[C@H](CO)[C@@H](O)[C@H](O)[C@H]6O[C@@H]6OC[C@@H](O)[C@H](O)[C@H]6O)C(C)(C)[C@@H]5CC[C@@]4(C)[C@]3(C)[C@H]3C[C@]2(C[C@@H]1O)C(=O)O3 [BRIDGESIDE D1] | > 200
CC(=O)OC[C@]1(C)C[C@H]2C3=CC[C@@H]4[C@@]5(C)CC[C@H](O[C@@H]6O[C@H](C(=O)O)[C@@H](O)[C@H](O)[C@H]6O[C@@H]6O[C@H](CO)[C@@H](O)[C@H](O)[C@H]6O[C@@H]6O[C@@H](C)[C@H](O)[C@@H](O)[C@H]6O)C(C)(C)[C@@H]5CC[C@@]4(C)[C@]3(C)[C@H]3C[C@]2(C[C@@H]1O)C(=O)O3 [BRIDGESIDE D2] | > 200
C[C@@H]1O[C@@H](O[C@H]2[C@H](O[C@H]3[C@H](O[C@H]4CC[C@]5(C)[C@H]6CC=C7[C@@H]8CC(C)(C)C[C@H](O)[C@]89C[C@@H](OC9=O)[C@@]7(C)[C@]6(C)CC[C@H]5C4(C)C)O[C@H](C(=O)O)[C@@H](O)[C@@H]3O)O[C@H](CO)[C@@H](O)[C@@H]2O)[C@H](O)[C@H](O)[C@H]1O [DUMORTIERINOSIDE A] | > 200
C=C(C)[C@@H]1CC[C@]2(C(=O)O[C@@H]3O[C@H](CO)[C@@H](O)[C@H](O)[C@H]3O)CC[C@]3(C)[C@H](CC[C@@H]4[C@@]5(C)CC[C@H](O[C@@H]6O[C@H](C(=O)O)[C@@H](O)[C@H](O[C@@H]7O[C@@H](C)[C@H](O)[C@@H](O)[C@H]7O)[C@H]6O[C@@H]6O[C@@H](C)[C@H](O)[C@@H](O)[C@H]6O)C(C)(C)[C@@H]5CC[C@]43C)[C@@H]12 [ERUCASAPONIN A] | > 200
COC(=O)[C@H]1O[C@@H](O[C@H]2CC[C@]3(C)[C@H]4CC=C5[C@@H]6CC(C)(C)CC[C@]6(C=O)[C@@H](O)C[C@@]5(C)[C@]4(C)CC[C@H]3C2(C)C)[C@H](O[C@@H]2O[C@H](CO)[C@@H](O)[C@H](O)[C@H]2O)[C@@H](O[C@@H]2O[C@H](CO)[C@@H](O)[C@H](O)[C@H]2O)[C@@H]1O [GUMMOSOSIDE A METHYL ESTER] | 99.5
CC1(C)CC[C@]2(C=O)[C@@H](O)C[C@]3(C)C(=CC[C@@H]4[C@@]5(C)CC[C@H](O[C@@H]6O[C@H](C(=O)O)[C@@H](O)[C@H](O[C@@H]7O[C@H](CO)[C@@H](O)[C@H](O)[C@H]7O)[C@H]6O[C@@H]6O[C@H](CO)[C@@H](O)[C@H](O)[C@H]6O)C(C)(C)[C@@H]5CC[C@]43C)[C@@H]2C1 [GUMMOSOSIDE A] | > 200
C[C@H]1C[C@]23C(=O)O[C@@]14C(=CC[C@@H]1[C@@]5(C)CC[C@H](O[C@@H]6O[C@H](C(=O)O)[C@@H](O)[C@H](O[C@@H]7OC[C@@H](O)[C@H](O)[C@H]7O)[C@H]6O[C@@H]6O[C@H](CO)[C@@H](O)[C@H](O)[C@H]6O)C(C)(C)[C@@H]5CC[C@]14C)[C@@H]2CC(C)(C)C[C@@H]3O[C@@H]1O[C@H](C(=O)O)[C@@H](O)[C@H](O)[C@H]1O [PACHANOSIDE D1] | > 200
CC(=O)O[C@H]1CC(C)(C)C[C@H]2C3=CC[C@@H]4[C@@]5(C)CC[C@H](O[C@@H]6O[C@H](C(=O)O)[C@@H](O)[C@H](O[C@@H]7OC[C@@H](O)[C@H](O)[C@H]7O)[C@H]6O[C@@H]6O[C@H](CO)[C@@H](O)[C@H](O)[C@H]6O)C(C)(C)[C@@H]5CC[C@@]4(C)[C@]34OC(=O)[C@]12C[C@@H]4C [PACHANOSIDE I1] | > 200
C[C@@H]1O[C@@H](O[C@@H]2[C@@H](O)[C@@H](O)[C@H](O[C@H]3[C@H](O[C@H]4CC[C@]5(C)[C@H]6CC[C@@H]7[C@H]8[C@H](C(C)(C)O)[C@@H]9C[C@@]8(CC[C@@]7(C)[C@]6(C)CC[C@H]5C4(C)C)C(=O)O9)O[C@H](C(=O)O)[C@@H](O)[C@@H]3O)O[C@H]2C)[C@H](O)[C@H](O)[C@H]1O [STELLATOSIDE A] | > 200
CC(C)(O)[C@H]1[C@@H]2[C@H]3CC[C@@H]4[C@@]5(C)CC[C@H](O[C@@H]6O[C@H](C(=O)O)[C@@H](O)[C@H](O)[C@H]6O[C@@H]6O[C@H](CO)[C@@H](O)[C@H](O)[C@H]6O[C@@H]6OC[C@@H](O)[C@H](O)[C@H]6O)C(C)(C)[C@@H]5CC[C@@]4(C)[C@]3(C)CC[C@@]23C[C@@H]1OC3=O [STELLATOSIDE B] | > 200
C[C@@H]1O[C@@H](O[C@H]2[C@H](O[C@H]3CC[C@]4(C)[C@H]5CC[C@@H]6[C@H]7[C@H](C(C)(C)O)[C@@H]8C[C@@]7(CC[C@@]6(C)[C@]5(C)CC[C@H]4C3(C)C)C(=O)O8)O[C@H](C(=O)O)[C@@H](O)[C@@H]2O[C@@H]2O[C@@H](C)[C@H](O)[C@@H](O)[C@H]2O)[C@H](O)[C@H](O)[C@H]1O [STELLATOSIDE C] | > 200
C=C(C)[C@H]1[C@@H]2[C@H]3CC[C@@H]4[C@@]5(C)CC[C@H](O[C@@H]6O[C@H](C(=O)O)[C@@H](O)[C@H](O[C@@H]7O[C@@H](C)[C@H](O)[C@@H](O)[C@H]7O)[C@H]6O[C@@H]6O[C@@H](C)[C@H](O)[C@@H](O)[C@H]6O)C(C)(C)[C@@H]5CC[C@@]4(C)[C@]3(C)CC[C@@]23C[C@@H]1OC3=O [THURBEROSIDE A] | 167

Tested on: RBL-2H3
Assay: Anti-type1 allergic activity in rat RBL2H3 cells using p-nitrophenyl-2-acdetamido-2-deoxy-beta-D-glucopyranoside as substrate assessed as inhibition of beta-hexosaminidase release at 200 uM incubated for 10 mins prior to substrate addition measured after 60 mins by spectrophotometry
Format: functional

SMILES | inhibition at 200 µM [%]
C[C@@H]1O[C@@H](O[C@H]2[C@H](O[C@H]3[C@H](O[C@H]4CC[C@]5(C)[C@H]6CC=C7[C@@H]8CC(C)(C)C[C@H](O)[C@]89C[C@@H](OC9=O)[C@@]7(C)[C@]6(C)CC[C@H]5C4(C)C)O[C@H](C(=O)O)[C@@H](O)[C@@H]3O)O[C@H](CO)[C@@H](O)[C@@H]2O)[C@H](O)[C@H](O)[C@H]1O [DUMORTIERINOSIDE A] | 32.5

Tested on: RBL-2H3
Assay: Anti-type1 allergic activity in rat RBL2H3 cells using p-nitrophenyl-2-acdetamido-2-deoxy-beta-D-glucopyranoside as substrate assessed as inhibition of beta-hexosaminidase release at 100 uM incubated for 10 mins prior to substrate addition measured after 60 mins by spectrophotometry
Format: functional

SMILES | inhibition at 100 µM [%]
COC(=O)[C@H]1O[C@@H](O[C@H]2CC[C@]3(C)[C@H]4CC=C5[C@@H]6CC(C)(C)C[C@H](O)[C@]67C[C@@H](OC7=O)[C@@]5(C)[C@]4(C)CC[C@H]3C2(C)C)[C@H](O[C@@H]2O[C@H](CO)[C@@H](O)[C@H](O)[C@H]2O[C@@H]2O[C@@H](C)[C@H](O)[C@@H](O)[C@H]2O)[C@@H](O)[C@@H]1O | 40.3

— ChEMBL document CHEMBL2046368, “New triterpenoid saponins from cacti and anti-type I allergy activity of saponins from cactus” (Bioorg Med Chem Lett, 2012)
